# Key:
# [1] = biological target: T1, recombinant H. influenzae IgA1P (variant A1) (Haemophilus influenzae, UniProt P44969); assay: biochemical
# [2] = biological target: T1, recombinant H. influenzae IgA1P (variant A1); type: biochemical; conditions: up to 100 μM
SMILES,IC50 [1] [nM],Inhibition of recombinant H. influenzae IgA1P [2]
"Oc1nsnc1N1CCOCC1 [Compound 1a, 4-morpholin-4-yl-1,2,5-thiadiazol-3-ol]",> 100000,
"O=c1oc(Cl)c(Cl)c2ccccc12 [DCIC, 3,4-dichloroisocoumarin]",6 ± 1,
O=S(=O)(F)Cc1ccccc1 [PMSF],,did not inhibit
NCCc1ccc(S(=O)(=O)F)cc1 [Pefablock],,did not inhibit

# From paper PMC6625846 (ACS infectious diseases, 2019)
